BindingDB's records for doi:10.1021/jm050859x (Amgen, 2006)
pIC50: −log10 of the molar value.

Target: RNA-directed RNA polymerase (Hepacivirus hominis, UniProt Q8JXU8)
Assay: Inhibitory activity against HCV delta 21 NS5b RNA polymerase

Chain of RNA-directed RNA polymerase (Q8JXU8 whole entry): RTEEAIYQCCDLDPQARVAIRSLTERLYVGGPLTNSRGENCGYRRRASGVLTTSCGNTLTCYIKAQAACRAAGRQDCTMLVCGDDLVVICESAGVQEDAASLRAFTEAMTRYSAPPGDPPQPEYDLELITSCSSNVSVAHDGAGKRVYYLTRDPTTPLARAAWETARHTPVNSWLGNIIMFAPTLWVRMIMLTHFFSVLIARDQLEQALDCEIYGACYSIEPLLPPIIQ

Structure (SMILES)	pIC50
O=S(=O)(Nn1c(O)c(Cc2ccc(Cl)c(Cl)c2)sc1=S)c1ccccc1 [5-(3,4-dichlorobenzyl)-3-(benzenesulfonylamino)-4-oxo-2-thionothiazolidine]	4.96
C=C(c1ccc(Cl)c(Cl)c1)c1sc(=S)n(NS(=O)(=O)c2ccccc2)c1O [5-(3,4-dichlorophenyl-1-ethylene)-3-(benzenesulfonylamino)-4-oxo-2-thionothiazolidine]	6.22
O=C1N=C(S)SC1=Cc1ccc(Cl)cc1 [5-(4-chlorobenzylidene)-2-thioxothiazolidin-4-one]	< 4.52
O=C(NN1C(=O)C(=Cc2ccc(Cl)cc2)SC1=S)c1ccccc1 [5-(4-chlorobenzylidene)-3-(benzoylamino)-4-oxo-2-thionothiazolidine]	< 4.52
O=C1C(=Cc2ccc(-c3cc(C(F)(F)F)ccc3Cl)o2)SC(=S)N1NS(=O)(=O)c1ccccc1 [5-(5-[2-chloro-5-(trifluoromethyl)phenyl]-furan-2-methylene)-3-(benzenesulfonylamino)-4-oxo-2-thionothiazolidine]	7.00
